Compound `COc1cc2c(C3C(=O)Nc4c(F)cccc43)ncnc2cc1OCCCN1CCOCC1.Cl.Cl` (stereo not shown) had a melting point of 211 to 214 °C.

Regarding `CN1CCN(CCCOc2ccc3c(C4C(=O)Nc5ccc(C#N)cc54)ncnc3c2)CC1.Cl.Cl` (stereo not shown), the melting point was 200 °C (dec.).

Regarding `CN(C)C(=O)c1ccc2c(c1)C(c1ncnc3cc(OCCCN4CCOCC4)ccc13)C(=O)N2` (stereo not shown) [Example 43, 3-[7-(3-Morpholin-4-yl-propoxy)quinazolin-4-yl]-2-oxo-2,3-dihydro-1H-indole-5-carboxylic acid dimethylamide], the melting point was in the range of 167.5 to 168.7 °C.

`CNC(=O)c1ccc2c(c1)C(c1ncnc3cc(OCCCN4CCOCC4)ccc13)C(=O)N2` (stereo not shown) [Example 44, 3-[7-(3-Morpholin-4-yl-propoxy)-quinazolin-4-yl]-2-oxo-2,3-dihydro-1H-indole-5-carboxylic acid methylamide] showed a melting point of 195 to 198 °C.
